Data set [1] can be described thus: Liver microsomal metabolic stability test (human). To be noted: NADPH, 37° C.; for half-life at 1 µM / microsomal CLint at 1 µM: pH 7.4; for half-life at 1 µM: read-out: Human hepatic microsomal metabolic half-life; for microsomal CLint at 1 µM: read-out: Intrinsic clearance of human hepatic microsomes in body. The class given is in vitro ADME. On the procedure:
(§1) 1) Preparation of stock and working solutions of the compound: An appropriate amount of the compound was weighed and dissolved in DMSO to give a 10 mM stock solution, and the stock solution was further diluted with ACN to give a 100 µM working solution.
Each positive control standard was dissolved separately with DMSO to obtain a 10 mM stock solution and further diluted with ACN to obtain a 100 µM working solution.
(§2) 73.21 g of dipotassium hydrogen phosphate trihydrate and 10.78 g of potassium dihydrogen phosphate were dissolved in 4000 mL of ultrapure water. The pH of the solution was adjusted to 7.40 ± 0.10 with 10% phosphoric acid or 1 M potassium hydroxide and the final concentration was 100 mM.
Human liver microsomes (20 mg/mL) were diluted with the phosphate buffer solution to obtain 0.56 mg/mL of a liver microsomal working solution.
(§3) NADPH was weighed and dissolved in the phosphate buffer solution to obtain a 10 mM solution.
1) Preparation of Blank: 54 µL of human liver microsomal working solution was transferred to a blank sample plate, then added with 6 µL of NADPH working solution, and finally added with 180 µL of ACN solution containing 200 ng/mL of tolbutamide and labetalol (internal standard) to precipitate the protein.
445 µL of human liver microsomal working solution (MWS) was added to the cofactor-free incubation sample plate, pre-incubated at 37° C. for 10 min, and then fully mixed after the addition of 5 µL of working solution of positive control or the compound to be tested.
50 µL of phosphate buffer solution was added to the above incubation sample plate, fully mixed and incubated at 37° C. for 60 min.
After the incubation is complete, 60 µL of incubation solution was taken into a pellet plate, and then added with 180 µL of ACN solution containing 200 ng/mL of tolbutamide and labetalol (internal standard) to precipitate the protein.
(§4) 445 µL of human/rat liver microsomal working solution (MWS) was added to the incubation sample plate, pre-incubated at 37° C. for 10 min, and then fully mixed after the addition of 5 µL of working solution of positive control or the compound to be tested.
(§5) 54 µL of the above intermediate working solution was transferred to the zero-time sample plate (T0), then added with 180 µL of ACN solution containing 200 ng/mL tolubutamide and labetalol (internal standard) to precipitate the protein, and finally added with 6 µL of NADPH working solution.
(§6) 44 µL of NADPH working solution was added to 396 µL of microsomal working solution containing positive control or the compound to be tested (remaining solution after the operation of steps (1) and (2)) and incubated at 37° C. At the time points of 5, 15, 30, 45, and 60 min, 60 uL of incubation solution was taken and added to 180 µL of ACN solution containing 200 ng/mL of tolubutamide and labetalol (internal standard) to precipitate the protein.
(§7) Centrifuged collected supernatants were analyzed with LC-MS/MS after appropriate dilution.
(§8) The peak area ratio of the analyte to the internal standard was used to calculate the relative percentage content of the compound after incubation and to perform exponential function fitting. The calculation formula was as follows: […]
(§9) wherein k was the rate constant obtained by linear regression taking the concentration logarithm as the ordinate and the incubation time as the absciss.
(§10) wherein CLint was the Intrinsic clearance.
In general terms: Microsomes from liver hold many membrane-bound enzymes, among them those of drug oxidation.

Data set [2] is described as follows: Liver microsomal metabolic stability test (rat). The class given is in vitro ADME. As to conditions: NADPH, 37° C. On the procedure:
as §1, §2, §3, §4, §5, §6, §7, §8, §9, §10

The mark [3] stands for this setting: human liver microsomes, 0-60 min.

Three molecules from patent US20230242551A1, “ISOTOPE-SUBSTITUTED SPIRO AROMATIC RING COMPOUND AND APPLICATION THEREOF” (ETERN BIOPHARMA (SHANGHAI) CO., LTD., priority 2020, published 2023) can be followed below.

The term half-life denotes how long it takes for the measured level to halve. In the case of `[2H][C@@]1(N)c2cccnc2CC12CCN(c1ncc(Sc3ccnc(N)c3Cl)c3nccn13)CC2` [Compound 10], the half-life at 1 µM in data set [1] (setting [3]) worked out at 1.2 h; in data set [2] (pH 7.4, rat liver microsomes, 0-60 min, read-out: Rat hepatic microsomal metabolic half-life), 2.03 h. For the same molecule, the microsomal CLint at 1 µM was found to be 19 µL/min/mg in data set [1] (human liver microsomes) and 11.4 µL/min/mg in data set [2] (pH 7.4, rat liver microsomes, read-out: Intrinsic clearance of rat hepatic microsomes in body).

With `Nc1nccc(Sc2cnc(N3CCC4(CC3)Cc3ncccc3[C@H]4N)n3ccnc23)c1Cl` [Compound 1], the “Intrinsic clearance of human hepatic microsomes in body” value in data set [1] is 26 µL/min/mg. Moreover, the “Human hepatic microsomal metabolic half-life” value in data set [1] (setting [3]) was 0.9 h. For the same molecule, in data set [2], the “Intrinsic clearance of rat hepatic microsomes in body” value came to 19 µL/min/mg. For the same molecule, the “Rat hepatic microsomal metabolic half-life” value in data set [2] (rat liver microsomes, 0-60 min) came to 1.17 h.

Consider `[2H]C1([2H])c2ncccc2[C@@]([2H])(N)C12CCN(c1ncc(Sc3ccnc(N)c3Cl)c3nccn13)CC2` [Compound 12], for which, in data set [1] (setting [3]), the half-life at 1 µM stood at 1.28 h. For the same molecule, in data set [1] (human liver microsomes), the microsomal CLint at 1 µM came to 18 µL/min/mg.
